{"source": "patent US11752159B2", "about": "“Compositions and methods for suppressing or reducing systemic immune response in a subject” (THE TRUSTEES OF THE UNIVERSITY OF PENNSYLVANIA, priority 2015, dated 2023)", "key": {"[1]": {"system": "Tregs and conventional CD4+ T cells (Tconvs)", "test": "BrdU incorporation in splenic Tregs and conventional T cells", "type": "in vivo, mice", "settings": "spleen, Day 8, topical 2 nmol daily", "from_the_text": "FIGS. 4A-4B comprise graphs illustrating data derived from topical treatment of B6 mice with EtOH or MC903 (2 nmol) daily and BrdU (intraperitoneal injection as a loading dose, followed by administration of drinking water) for the last 3 days. FIG. 4A illustrates Bromodeoxyuridine (BrdU) incorporation in Tregs on Day 8 in the spleen of B6 mice. FIG. 4B illustrates BrdU incorporation in conventional T cells (Tconvs) on Day 8 in the spleen of B6 mice.\n(§1) Next, the kinetics of the systemic increase in Treg levels was investigated after topical MC903 treatment (treatment stopped on Day 7). The absolute number and the fraction of Tregs increased to a peak between days 6 and 9 and gradually declined thereafter in the spleen and the blood of MC903-treated mice (FIGS. 3A-3B). Circulating TSLP levels peaked at Day 6 and fell abruptly by Day 9 (FIG. 3C)."}, "Tregs": {"system": "Tregs", "test": "Dosing schedule of chronic topical MC903: circulating Tregs and atopic dermatitis", "type": "in vivo, mice", "from_the_text": "FIG. 11 comprises a graph illustrating data derived from topically treating mice with MC903 (2 nmol on one ear) 3 times/week every other week or with MC903 (2 nmol on one ear) 3 times/week every week (alternating ears every week) for 8 weeks. The % of Tregs out of CD4+ T cells in the blood before (baseline) and after treatment (Weeks 1, 4, 6, and 8) is illustrated. N=3 mice/group. * p<0.05 by Student t-test.\nFIG. 12 comprises a graph illustrating data derived from topically treating mice with EtOH or MC903 (2 nmol) 3 times/week every other week for 10 weeks. The % of Tregs out of CD4+ T cells in the blood before (Day 0) and after treatment (Day 8 and Week 10) is illustrated. N=7 mice/group.\nTo test whether chronic MC903 treatment results in sustained increases in Treg numbers, mice were continuously treated with MC903 for more than 2 weeks.\nTo avoid this local toxic effect of MC903, alternating ears were treated every week (right ear for 1 week, followed by the left ear for 1 week, then back to the right ear for 1 week, and so on). […] Without wishing to be limited by any theory, the increase in Tregs appeared to be become refractory to the chronic MC903 treatment. Thus, the protocol was modified so that a 1-week rest period (pulse treatment) was given between weekly treatments."}, "NOD mice": {"system": "NOD mice", "test": "NOD mouse model of type I diabetes, topical MC903", "type": "in vivo", "from_the_text": "FIGS. 5A-5B comprise graphs illustrating data derived from topical treatment of NOD mice with EtOH or MC903 (2 nmol) 3 times/week every other week at Week 5 of age; treatment was stopped at Week 15 of age. FIG. 5A illustrates the percentage of Tregs out of CD4+ T cells in the blood of NOD mice before (Day 0) and after treatment (Day 8). […] The % of mice with diabetes is plotted over the age of the mice (N=7 mice/group-EtOH; N=8 mice/group-MC903).\nTo test whether topical treatment with MC903 would lead to amerilioration of inflammatory disorders, it was tested whether topical application of MC903 protected a mouse against type I diabetes (T1D), using a non-obese diabetes (NOD) mouse model of diabetes. NOD mice were treated 3 times a week with MC903 on alternating ears every week."}, "[2]": {"system": "regulatory T cells (Tregs)", "test": "Kinetics of systemic Treg levels after topical MC903 treatment", "type": "in vivo, mice", "settings": "Day 15, after cessation of topical treatment", "from_the_text": "FIG. 3A-3C comprise graphs illustrating data derived from topical treatment of B6 mice with EtOH or MC903 (2 nmol) until […]. Mice were taken at different time points post treatment initiation as indicated. FIG. 3A is a graph illustrating the percentage of Tregs out of CD4+ T cells in the spleen and blood of B6 mice over 18 days. FIG. 3B illustrates the absolute numbers of Tregs in the spleen of B6 mice over 18 days. FIG. 3C illustrates the serum thymic stromal lymphopoietin (TSLP) level change over time in B6 mice over 18 days.\nas §1"}, "B6 mice": {"system": "B6 mice", "test": "Experimental allergic encephalitis (EAE) mouse model of multiple sclerosis, topical MC903", "type": "in vivo", "settings": "topical daily starting 1 day before disease induction, compared to EtOH-treated mice", "procedure": "FIG. 7 illustrates the clinical score difference among B6 mice topically treated with EtOH or MC903 daily for 2 weeks. The B6 mice were injected with myelin oligodendrocyte glycoprotein (MOG) peptide emulsified in complete Freund's adjuvant (CFA), then received Pertussis toxin intraperitoneally at the time of immunization and 48 h later. The mice were treated with topical EtOH or MC903 daily for 2 weeks. Mice were clinically scored on a five-point scale for signs of disease on the indicated days. N=8 mice/group. P=0.06 by two-way Analysis of variance (ANOVA). To test whether topical MC903 treatment was effective at treating multiple sclerosis (MS), the effect of MC903 in reducing clinical severity of a mouse model of MS known as experimental allergic encephalitis (EAE). Mice were topically treated daily with MC903 starting 1 day before disease induction. […] Thus, topical MC903 treatment might also be beneficial in the treatment of multiple sclerosis."}, "TSLP": {"system": "TSLP", "test": "Systemic TSLP induction by topical vitamin D3 analogs (ELISA)", "type": "in vivo, mice", "settings": "topical, ear skin bilaterally, 2 nmol/ear in ethanol, after 5 days of treatment"}, "[3]": {"settings": "3 days (every other day)/week every other week"}}}
{"smiles": "C=C1/C(=C\\C=C2/CCC[C@]3(C)[C@@H]([C@H](C)/C=C/[C@@H](O)C4CC4)CC[C@@H]23)C[C@@H](O)C[C@@H]1O", "note": "[MC903, 26,27-cyclo-22-ene-1α,24S-dihydroxyvitamin D3]", "values": [{"measurement": "BrdU incorporation by Tregs", "setting": "[1]", "result": "enhanced"}, {"measurement": "BrdU incorporation by conventional CD4+ T cells (Tconvs)", "setting": "[1]", "result": "no significant increase"}, {"measurement": "atopic inflammation, pulse treatment", "setting": "Tregs; [3]", "result": "atopic inflammation was avoided"}, {"measurement": "circulating Treg numbers, pulse treatment", "setting": "Tregs; [3]", "result": "increased over a 10 week period"}, {"measurement": "Tregs at Day 8, alternating ear protocol", "setting": "Tregs; alternating ears every week, Day 8", "result": "increased systemically"}, {"measurement": "circulating Tregs at Week 4 of treatment and beyond, alternating ear protocol", "setting": "Tregs; alternating ears every week, no rest week", "result": "not increased"}, {"measurement": "atopic dermatitis with alternating ear protocol", "setting": "Tregs; alternating ears treated every week", "result": "minimal atopic dermatitis"}, {"measurement": "local toxicity with chronic once/day treatment of more than 1 week", "setting": "Tregs; mouse, in vivo", "result": "development of atopic dermatitis of the ear skin"}, {"measurement": "circulating Treg levels", "setting": "NOD mice; Day 8 post-treatment, compared to vehicle", "result": "increased"}, {"measurement": "atopic dermatitis under treatment protocol", "setting": "NOD mice; topical 3 times a week on alternating ears, 8 weeks", "result": "little to no evidence of atopic dermatitis"}, {"measurement": "incidence of T1D (two consecutive blood glucose readings >250 mg/dl)", "setting": "NOD mice; topical MC903 compared to vehicle", "result": "significantly attenuated"}, {"measurement": "Treg levels versus EtOH-treated group by Day 15", "setting": "[2]", "result": "no differences"}, {"measurement": "clinical severity of EAE", "setting": "B6 mice", "result": "attenuated clinical severity"}, {"measurement": "serum TSLP levels", "setting": "TSLP", "result": "can induce TSLP production"}]}
